In the supplement of paper PMC10331698:
± gives the standard deviation of the averaged measurements.

What was measured:
Assay in all cases: level (log10 ratio to DMSO vehicle control); higher = higher biomarker level / cell amount than vehicle control
[1] = compound: O=C(O)C(F)(OC(F)(F)C(F)(F)C(F)(F)F)C(F)(F)F [Ammonium perfluoro-2-methyl-3-oxahexanoate] (in Water)
Procedure: (§1)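 BioMAP Diversity Plus panel of 12 human primary cell co-culture systems (3C, 4H, LPS, SAg, BT, BF4T, BE3C, CASM3C, HDF3CGF, KF3CT, MyoF, Mphg). Compounds were added 1 h before stimulation and left for 24 h (MyoF 48 h; BT 72 h for soluble read-outs or 6 d for IgG). Biomarkers were read by ELISA, cytotoxicity by SRB, PBMC viability and proliferation by Alamar Blue. Each well value was divided by the mean of 8 DMSO control wells on the same plate and log10 transformed; duplicate blinded samples were tested at 4 concentrations.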

[2] = compound: CCOC(=O)CC(=O)C(F)(F)C(F)(F)F [Ethyl pentafluoropropionyl acetate] (in DMSO)
Procedure: as §1

[3] = compound: OCC(F)(F)C(F)(F)C(F)(F)C(F)F [1H,1H,5H-Perfluoropentanol] (in DMSO)
Procedure: as §1

[4] = compound: OCC(F)(F)OC(F)(F)C(F)(F)OC(F)(F)C(F)(F)OC(F)(F)CO [1H,1H,11H,11H-Perfluorotetraethylene glycol] (in DMSO)
Procedure: as §1

[5] = compound: O=S(=O)(O)C(F)(F)C(F)(F)OC(F)(F)C(F)(F)F [Perfluoro(2-ethoxyethane)sulfonic acid] (in DMSO)
Procedure: as §1

Perfluorononanoic acid = compound: O=C(O)C(F)(F)C(F)(F)C(F)(F)C(F)(F)C(F)(F)C(F)(F)C(F)(F)C(F)(F)F [Perfluorononanoic acid] (in DMSO)
Procedure: as §1

Octafluoroadipic acid = compound: O=C(O)C(F)(F)C(F)(F)C(F)(F)C(F)(F)C(=O)O [Octafluoroadipic acid] (in DMSO)
Procedure: as §1

Row | Test System | level (log10) ([1]; 6700 nM) | level (log10) ([1]; 20000 nM) | level (log10) ([1]; 60000 nM) | level (log10) ([2]; 6700 nM) | level (log10) ([2]; 20000 nM) | level (log10) ([2]; 60000 nM) | level (log10) ([3]; 6700 nM) | level (log10) ([3]; 20000 nM) | level (log10) ([3]; 60000 nM) | level (log10) ([4]; 6700 nM) | level (log10) ([4]; 20000 nM) | level (log10) ([4]; 60000 nM) | level (log10) ([5]; 6700 nM) | level (log10) ([5]; 20000 nM) | level (log10) ([5]; 60000 nM) | level (log10) (Perfluorononanoic acid; 6700 nM) | level (log10) (Perfluorononanoic acid; 20000 nM) | level (log10) (Octafluoroadipic acid; 6700 nM) | level (log10) (Octafluoroadipic acid; 20000 nM) | level (log10) (Octafluoroadipic acid; 60000 nM)
1 | 3C:CCL2/MCP-1 | -0.003 ± 0.0085 | -0.004 ± 0.016 | 0.056 ± 0.05 | -0.012 ± 0.0042 | -0.0185 ± 0.0035 | 0.002 ± 0.0085 | -0.0055 ± 0.015 | 0.03 ± 0.024 | 0.042 ± 0.045 | -0.001 ± 0.018 | -0.005 ± 0.027 | -0.015 ± 0.0057 | -0.022 ± 0.03 | -0.014 ± 0.014 | -0.0095 ± 0.019 | -0.014 ± 0.038 | -0.0045 ± 0.016 | -0.0115 ± 0.0064 | -0.0105 ± 0.011 | 0.0135 ± 0.036
2 | CASM3C:PAI-I | -0.007 ± 0.0085 | -0.0005 ± 0.0092 | -0.0025 ± 0.013 | 0.002 ± 0.0057 | 0.0055 ± 0.012 | 0.007 ± 0.0014 | -0.008 ± 0.0028 | -0.0015 ± 0.0035 | 0.005 ± 0.0071 | -0.0035 ± 0.012 | 0.0005 ± 0.0035 | 0.007 ± 0.0014 | 0.004 ± 0.0071 | 0.0015 ± 0.012 | 0.015 ± 0.011 | 0.0015 ± 0.011 | -0.008 ± 0.017 | 0.001 ± 0.0057 | -0.0015 ± 0.00071 | 0.002 ± 0.013
3 | KF3CT:TIMP-2 | -0.0005 ± 0.037 | -0.002 ± 0.025 | 0.022 ± 0.027 | 0.004 ± 0.011 | -0.0105 ± 0.0078 | 0.0175 ± 0.0035 | -0.018 ± 0.013 | 0.025 ± 0.045 | 0.0285 ± 0.029 | -0.008 ± 0.017 | 0.023 ± 0.0085 | 0.0295 ± 0.0092 | 0.0035 ± 0.0092 | 0.01 | 0.0155 ± 0.005 | -0.074 ± 0.027 | -0.002 ± 0.045 | -0.001 ± 0.025 | -0.0015 ± 0.005 | 0.0105 ± 0.0092
4 | lMphg:sIL-10 | -0.36 ± 0.035 | -0.328 ± 0.018 | -0.467 ± 0.13 | -0.0405 ± 0.012 | -0.0435 ± 0.035 | -0.0305 ± 0.022 | -0.0455 ± 0.069 | -0.012 ± 0.025 | -0.014 ± 0.027 | -0.0385 ± 0.056 | -0.0965 ± 0.066 | -0.306 ± 0.025 | 0.0105 ± 0.13 | -0.0625 ± 0.005 | -0.818 ± 0.028 | -0.0035 ± 0.026 | -0.093 ± 0.044 | -0.067 ± 0.014 | -0.0425 ± 0.077 | -0.0425 ± 0.046
5 | CASM3C:Serum Amyloid A | -0.031 ± 0.04 | -0.034 ± 0.03 | -0.0005 ± 0.049 | 0.0005 ± 0.0035 | -0.012 ± 0.0014 | 0.0155 ± 0.029 | -0.077 ± 0.014 | -0.058 ± 0.044 | -0.0135 ± 0.049 | 0.0105 ± 0.0092 | -0.0065 ± 0.00071 | 0.002 ± 0.045 | 0.029 ± 0.044 | 0.133 ± 0.18 | 0.344 ± 0.22 | -0.014 ± 0.018 | -0.012 ± 0.048 | -0.032 ± 0.037 | -0.0515 ± 0.011 | 0.0105 ± 0.005
6 | CASM3C:CCL2/MCP-1 | -0.0235 ± 0.021 | -0.034 ± 0.035 | -0.013 ± 0.013 | -0.001 ± 0.0028 | 0.003 ± 0.0057 | 0.009 ± 0.027 | -0.0115 ± 0.012 | -0.0105 ± 0.013 | -0.0015 ± 0.011 | 0.0125 ± 0.012 | -0.007 ± 0.017 | -0.004 ± 0.017 | -0.003 ± 0.024 | -0.013 ± 0.0071 | -0.0115 ± 0.036 | -0.0295 ± 0.049 | -0.0085 ± 0.054 | -0.0085 ± 0.0092 | -0.0065 ± 0.011 | 0.015 ± 0.038
7 | 3C:CD141/Thrombomodulin | -0.0395 ± 0.03 | -0.0315 ± 0.011 | -0.057 ± 0.0028 | -0.013 ± 0.0099 | -0.0185 ± 0.021 | -0.0455 ± 0.00071 | -0.006 ± 0.011 | -0.013 ± 0.013 | 0.0195 ± 0.011 | -0.0145 ± 0.039 | 0.005 ± 0.028 | 0.051 ± 0.021 | 0.0085 ± 0.018 | -0.0145 ± 0.036 | -0.023 ± 0.0028 | -0.0225 ± 0.00071 | -0.0285 ± 0.011 | 0.0125 ± 0.025 | 0.016 ± 0.03 | 0.0195 ± 0.05
8 | lMphg:SRB-Mphg | -0.0535 ± 0.036 | -0.046 ± 0.041 | -0.054 ± 0.041 | -0.0015 ± 0.018 | -0.0055 ± 0.005 | -0.012 ± 0.02 | -0.012 ± 0.023 | -0.0605 ± 0.057 | 0.0145 ± 0.033 | 0 ± 0.0042 | -0.011 ± 0.0028 | -0.077 ± 0.0028 | 0.0125 ± 0.005 | 0.0155 ± 0.015 | -0.0045 ± 0.025 | -0.0205 ± 0.035 | -0.062 ± 0.081 | -0.026 ± 0.016 | 0.0135 ± 0.022 | 0.0265 ± 0.029
9 | MyoF:PAI-I | -0.0005 ± 0.005 | -0.0025 ± 0.0064 | -0.019 ± 0.011 | -0.0005 ± 0.021 | 0.006 ± 0.017 | 0.0055 ± 0.015 | -0.0265 ± 0.0078 | -0.018 ± 0.031 | -0.0045 ± 0.0021 | -0.01 ± 0.02 | -0.0135 ± 0.013 | -0.01 ± 0.018 | -0.0005 ± 0.00071 | -0.009 ± 0.013 | 0.0015 ± 0.011 | -0.01 ± 0.028 | 0.0105 ± 0.03 | -0.012 ± 0.0099 | -0.01 ± 0.017 | 0.001 ± 0.0085
10 | HDF3CGF:CD106/VCAM-1 | -0.039 ± 0.021 | -0.044 ± 0.027 | -0.131 ± 0.016 | 0.007 ± 0.011 | -0.0025 ± 0.005 | 0.006 ± 0.02 | -0.0535 ± 0.015 | 0.023 ± 0.048 | 0.0145 ± 0.043 | -0.09 ± 0.0042 | -0.202 | -0.264 ± 0.044 | -0.01 ± 0.05 | -0.0365 ± 0.09 | -0.016 ± 0.073 | -0.02 ± 0.034 | -0.0225 ± 0.022 | -0.001 ± 0.0071 | -0.016 ± 0.016 | -0.03 ± 0.04
11 | MyoF:Collagen I | -0.0135 ± 0.061 | -0.024 ± 0.024 | -0.027 ± 0.031 | -0.0085 ± 0.026 | -0.0155 ± 0.036 | -0.014 ± 0.041 | -0.003 ± 0.0057 | 0.021 ± 0.041 | 0.0305 ± 0.052 | -0.0005 ± 0.026 | 0.001 ± 0.03 | -0.0495 ± 0.016 | 0.016 ± 0.011 | -0.0025 ± 0.015 | 0.039 ± 0.014 | -0.017 ± 0.059 | -0.101 ± 0.027 | -0.0165 ± 0.018 | -0.021 ± 0.021 | -0.005 ± 0.0042
12 | CASM3C:CD142/Tissue Factor | 0.022 ± 0.013 | -0.0045 ± 0.028 | -0.009 ± 0.089 | -0.0235 ± 0.046 | -0.008 ± 0.031 | 0.0035 ± 0.012 | -0.0605 ± 0.044 | -0.0695 ± 0.035 | -0.0195 ± 0.094 | -0.0165 ± 0.032 | -0.024 ± 0.013 | -0.0125 ± 0.0035 | -0.023 ± 0.0085 | -0.0335 ± 0.035 | 0.045 ± 0.067 | -0.093 ± 0.064 | -0.115 ± 0.14 | -0.011 ± 0.0071 | -0.0045 ± 0.0092 | -0.0145 ± 0.00071
13 | BE3C:MMP-9 | -0.109 ± 0.051 | -0.09 ± 0.03 | -0.063 ± 0.035 | 0.006 ± 0.044 | -0.0145 ± 0.033 | -0.0065 ± 0.013 | -0.009 ± 0.016 | 0.0235 ± 0.018 | 0.0175 ± 0.022 | 0 ± 0.017 | -0.0345 ± 0.0021 | -0.0795 ± 0.0035 | -0.0015 ± 0.00071 | -0.0005 ± 0.015 | 0.0265 ± 0.012 | -0.0075 ± 0.00071 | 0.0055 ± 0.011 | -0.0065 ± 0.022 | -0.002 ± 0.016 | 0.0065 ± 0.0064
14 | lMphg:CD106/VCAM-1 | -0.0195 ± 0.0035 | -0.013 ± 0.0028 | -0.0085 ± 0.0035 | -0.023 ± 0.0028 | 0.013 ± 0.0028 | 0.0195 ± 0.005 | -0.0035 ± 0.021 | 0.0165 ± 0.037 | 0.0145 ± 0.018 | -0.015 ± 0.024 | 0.009 ± 0.05 | 0 ± 0.04 | -0.0225 ± 0.0064 | -0.016 ± 0.017 | -0.023 ± 0.0014 | 0.001 ± 0.04 | -0.005 ± 0.02 | -0.007 ± 0.02 | 0.0065 ± 0.011 | 0.0055 ± 0.005
